Test results: patent US11459325B2, “Heterocyclic compound” (Takeda Pharmaceutical Company Limited, priority 2018, dated 2022)

Each compound was assayed on GBA mutant human fibroblasts GM008760 (assay: Glucosylceramide lowering assay). Conditions: Homo sapiens, Fibroblast, 96 h; 10 μM test compound, 4 days culture; GlcCer (C16:0)/Cer (C16:0) molar ratio of test compound group relative to DMSO control group x100; smaller value = glucosylceramide lowering.
Format: cell-based
Experimental: Glucosylceramide Lowering Assay
Using GBA mutant human fibroblasts containing mutated glucosylceramidase, the effect of test compounds on glucosylceramide reduction was evaluated.
GBA mutant human fibroblasts GM008760 (Coriel Institute) were seeded in a 96-well multiwell plate at a density of 5,000 cells/100 μL culture solution/well. GlutaMAX (Thermo Fishcer Scientific), penicillin-streptomycin, and Minimum Essential Media (Thermo Fishcer Scientific) supplemented with 15% fetal bovine serum were used as a culture solution. After culturing for 2 days, a 10 mM DMSO solution of the test compound diluted with the culture solution was added to a 96-well plate by 100 μL to adjust a final test compound concentration to 10 μM. After culturing the cells for 4 days in the presence of the test compound, the culture solution was removed, and the cells adhered to the 96-well plate were washed with a phosphate buffer (ThermoFisher Scientific, product number 14190-144). A solvent composed of 50% ethanol and 50% isopropanol was added to the 96-well plate by 100 μL, and the intracellular lipids were dissolved by pipetting. A solution prepared by dissolving N-Octadecanoyl-D35-psychosine (50 ng/mL, Matreya LLC Inc.) as an internal standard in 50% ethanol and 50% isopropanol was added to the sample in an equal volume, and 2.5 μL of the centrifuged supernatant was used as the test compound group.
In the same manner as above, a control group was prepared by using DMSO instead of the 10 mM DMSO solution of the test compound.
For the test compound group and the control group, molar concentrations of glucosylceramide [GlcCer (C16:0)] and ceramide [Cer (C16:0)] were quantified using Rapidfire-MS/MS (API-5000, Turbo-ESI, SRM), and the glucosylceramide lowering effect of the test compound group relative to the control group was evaluated by the following formula. (GlcCer/Cer of test compound group)/(GlcCer/Cer of control group)×100 wherein GlcCer/Cer is the ratio of the molar concentration of glucosylceramide to that of ceramide.
In this test, when the numerical value obtained by the above calculation formula is small, glucosylceramide is metabolized to ceramide by the test compound, or the synthesis of glucosylceramide from ceramide is inhibited by the test compound, that is, it can be said that the test compound has a glucosylceramide lowering effect.
For `Cc1cn(C)c(=O)c2c(C(=O)N[C@H]3CCC[C@@H]3c3ccccc3)cn(C)c12` (racemic) [Example 110, 1,5,7-trimethyl-4-oxo-N-[rac-(1S,2R)-2-phenylcyclopentyl]-4,5-dihydro-1H-pyrrolo[3,2-c]pyridine-3-carboxamide], the activity at 10 µM was 58%.
Work on `Cc1cn(C)c(=O)c2c(C(=O)N[C@H]3CCC[C@H]3c3ccccc3)cn(C)c12` (racemic) [Example 111, 1,5,7-trimethyl-4-oxo-N-[rac-(1S,2S)-2-phenylcyclopentyl]-4,5-dihydro-1H-pyrrolo[3,2-c]pyridine-3-carboxamide] yielded an activity at 10 µM of 61%.
`Cc1cn(C)c(=O)c2c(C(=O)N[C@H]3CCCC[C@@H]3c3ccccc3)cn(C)c12` (racemic) [Example 112, 1,5,7-trimethyl-4-oxo-N-[rac-(1S,2R)-2-phenylcyclohexyl]-4,5-dihydro-1H-pyrrolo[3,2-c]pyridine-3-carboxamide] gave an activity at 10 µM of 61%.
In the case of `Cc1cn(C)c(=O)c2c(C(=O)N[C@H]3CCCC[C@H]3c3ccccc3)cn(C)c12` (racemic) [Example 113, 1,5,7-trimethyl-4-oxo-N-[rac-(1S,2S)-2-phenylcyclohexyl]-4,5-dihydro-1H-pyrrolo[3,2-c]pyridine-3-carboxamide], the activity at 10 µM is reported as 41%.
`Cc1cn(C)c(=O)c2c(C(=O)N[C@H]3CCC[C@H](c4ccccc4)C3)cn(C)c12` (racemic) [Example 114, 1,5,7-trimethyl-4-oxo-N-[rac-(1S,3S)-3-phenylcyclohexyl]-4,5-dihydro-1H-pyrrolo[3,2-c]pyridine-3-carboxamide] was tested, and the activity at 10 µM was 58%.
`CCCCO[C@H]1CC[C@H](NC(=O)c2cn(C)c3c(C)cn(C)c(=O)c23)CC1` [Example 2, N-(trans-4-butoxycyclohexyl)-1,5,7-trimethyl-4-oxo-4,5-dihydro-1H-pyrrolo[3,2-c]pyridine-3-carboxamide] showed an activity at 10 µM of 87%.
In the case of `Cc1cn(C)c(=O)c2c(C(=O)NC3CCC(c4ccccc4)CC3)cn(C)c12` (centres unmarked) [Example 21, 1,5,7-trimethyl-4-oxo-N-(4-phenylcyclohexyl)-4,5-dihydro-1H-pyrrolo[3,2-c]pyridine-3-carboxamide], the activity at 10 µM is reported as 67%.
Work on `COc1cc(NC(=O)c2cn(C)c3c(C)cn(C)c(=O)c23)ccn1` [Example 36, N-(2-methoxypyridin-4-yl)-1,5,7-trimethyl-4-oxo-4,5-dihydro-1H-pyrrolo[3,2-c] pyridine-3-carboxamide] yielded an activity at 10 µM of 65%.
Compound `COc1ccnc(NC(=O)c2cn(C)c3c(C)cn(C)c(=O)c23)c1` [Example 37, N-(4-methoxypyridin-2-yl)-1,5,7-trimethyl-4-oxo-4,5-dihydro-1H-pyrrolo[3,2-c] pyridine-3-carboxamide] has an activity at 10 µM of 68%.
`Cc1cn(C)c(=O)c2c(C(=O)Nc3ccc(C#N)cn3)cn(C)c12` [Example 40, N-(5-cyanopyridin-2-yl)-1,5,7-trimethyl-4-oxo-4,5-dihydro-1H-pyrrolo[3,2-c]pyridine-3-carboxamide] was tested, and the activity at 10 µM was 62%.
`CCCCOC1CCCC(NC(=O)c2cn(C)c3c(C)cn(C)c(=O)c23)C1` (centres unmarked) [Example 57, N-(3-butoxycyclohexyl)-1,5,7-trimethyl-4-oxo-4,5-dihydro-1H-pyrrolo[3,2-c]pyridine-3-carboxamide] showed an activity at 10 µM of 65%.
`Cc1cn(C)c(=O)c2c(C(=O)N3CCC(c4ccc(Cl)cc4)C3)cn(C)c12` (centres unmarked) [Example 71, 3-((3-(4-chlorophenyl)pyrrolidin-1-yl)carbonyl)-1,5,7-trimethyl-1,5-dihydro-4H-pyrrolo[3,2-c]pyridin-4-one] was tested, and the activity at 10 µM was 68%.
`Cc1cn(C)c(=O)c2c(C(=O)N3CC4CC4(c4ccc(Cl)cc4)C3)cn(C)c12` (centres unmarked) [Example 72, 3-((1-(4-chlorophenyl)-3-azabicyclo[3.1.0]hex-3-yl)carbonyl)-1,5,7-trimethyl-1,5-dihydro-4H-pyrrolo[3,2-c]pyridin-4-one] gave an activity at 10 µM of 38%.
`Cc1cn(C)c(=O)c2c(C(=O)N3CCC3c3ccccc3)cn(C)c12` (centres unmarked) [Example 83, 1,5,7-trimethyl-3-((2-phenylazetidin-1-yl)carbonyl)-1,5-dihydro-4H-pyrrolo[3,2-c]pyridin-4-one] gave an activity at 10 µM of 49%.
